From patent publication US20250040543A1, “Preservative Composition” (ARXADA AG, priority 2021, published 2025)

How the values were obtained:
[1] = test system: Pseudomonas aeruginosa ATCC 9027; assay: Preservation efficacy test in sterile distilled water, drop plate; format: cell-based; conditions: 7 days
Method: In the following example, the following test organisms were used: • Pseudomonas aeruginosa ATCC 9027 • Aspergillus brasiliensis ATCC 16404 [table] Bacteria were harvested and prepared in diluent (sterile distilled water) to obtain a final concentration of 1.0×10^6 to 5.0×10^6 cfu/ml. [table] […] Each sample was inoculated at t=0 with a known concentration of micro-organism. Each inoculated sample was then mixed until a homogenous mixture was obtained. […] The solution was left for 15 minutes. Subsequent dilutions were prepared by serial dilution of 0.1 ml into 0.9 ml of neutralising broth. Bacteria were serially diluted to 10^−4, Fungi were serially diluted to 10^−3. Each serial dilution was thoroughly mixed and 25 μl drops were aliquoted onto the surface of pre-prepared agar plates. Plates were prepared in sextupicate for each sample dilution. The agar plates were allowed to dry, then inverted and incubated under conditions appropriate for the test microorganisms. CFU/ml was calculated taking into account dilution factors. […] The lower and upper limits for drop plating were only employed on the highest and lowest dilution factor plates.

[2] = test system: Aspergillus brasiliensis ATCC 16404; assay: as above; format: cell-based; conditions: 7 days
Method: In the following example, the following test organisms were used: • Pseudomonas aeruginosa ATCC 9027 • Aspergillus brasiliensis ATCC 16404 [table] Mould strain spores were harvested (sterile distilled water+0.05% polysorbate 80) and treated to remove fungal hyphae. Mould strain spores were prepared in diluent (sterile distilled water) to obtain a final concentration of […]. [table] […] Each sample was inoculated at t=0 with a known concentration of micro-organism. Each inoculated sample was then mixed until a homogenous mixture was obtained. […] The solution was left for 15 minutes. Subsequent dilutions were prepared by serial dilution of 0.1 ml into 0.9 ml of neutralising broth. Bacteria were serially diluted to 10^−4, Fungi were serially diluted to 10^−3. Each serial dilution was thoroughly mixed and 25 μl drops were aliquoted onto the surface of pre-prepared agar plates. Plates were prepared in sextupicate for each sample dilution. The agar plates were allowed to dry, then inverted and incubated under conditions appropriate for the test microorganisms. CFU/ml was calculated taking into account dilution factors. […] The lower and upper limits for drop plating were only employed on the highest and lowest dilution factor plates.

C. albicans = assay: as above; format: cell-based, Candida albicans; conditions: 7 days, pH 7, Potassium Sorbate 0 ppm
Method: Yeast strains were harvested and prepared in diluent (sterile distilled water) to obtain a final concentration of 1.0×10^5 to 1.0×10^6 cfu/ml.
Preservation efficacy testing started at Day 0 (t=0). Each sample was inoculated at t=0 with a known concentration of micro-organism. Each inoculated sample was then mixed until a homogenous mixture was obtained. Inoculated samples were stored in the dark at 22.5±2.5° C. throughout the test period.
At the specified contact time of 7 days (t=7), test samples were deactivated by adding a 0.1 ml aliquot of the test sample to 0.9 ml of an appropriate neutralising broth. The solution was left for 15 minutes. Subsequent dilutions were prepared by serial dilution of 0.1 ml into 0.9 ml of neutralising broth. Bacteria were serially diluted to 10^−4, Fungi were serially diluted to 10^−3.
Each serial dilution was thoroughly mixed and 25 μl drops were aliquoted onto the surface of pre-prepared agar plates. Plates were prepared in sextupicate for each sample dilution.
The agar plates were allowed to dry, then inverted and incubated under conditions appropriate for the test microorganisms.
CFU/ml was calculated taking into account dilution factors. Colonies from the incubated plates were enumerated using the lower count limit of <10 CFU/ml and the upper count limit of >330 CFU/ml.
The lower and upper limits for drop plating were only employed on the highest and lowest dilution factor plates.
The test organisms were prepared and the method was performed according to the protocol of Example 1.

Candida albicans = assay: MIC and Synergy Index (Kull) of two-component compositions; format: cell-based
Method: A wide range of concentrations were tested against Pseudomonas aeruginosa, Staphylococcus aureus, Escherichia coli, and Candda albicans.
The lowest concentration of each mixture or single compound which prevents an observable level of growth was determined to be the minimum inhibitory concentration (MIC) value.
Serial dilutions of each mixture or single compound were prepared. Micro-organisms were inoculated into media: Nutrient Broth (bacteria) or Malt Extract Broth (yeast). The final concentrations of micro-organisms in media was approximately 10^5-6 CFU/ml. The inoculated media was introduced to each of the serial dilutions at a 1:1 ratio, and incubated at 30±1° C. for 24-48 hours.
The MICs for each mixture was compared with the MIC of each single compound alone.
In this study the end point is measured by the MIC.

[3] = pH 7, Butyl Levulinate 500 ppm, Potassium Sorbate 0 ppm
[4] = pH 7, Butyl Levulinate 1000 ppm, Potassium Sorbate 0 ppm
[5] = pH 7, Butyl Levulinate 1500 ppm, Potassium Sorbate 0 ppm
[6] = pH 7, Butyl Levulinate 1500 ppm, Sodium Benzoate 0 ppm
[7] = pH 7, Butyl Levulinate 2000 ppm, Potassium Sorbate 0 ppm
[8] = pH 7, Butyl Levulinate 2000 ppm, Sodium Benzoate 0 ppm
[9] = pH 7, Butyl Levulinate 2500 ppm, Potassium Sorbate 0 ppm
[10] = pH 7, Butyl Levulinate 2500 ppm, Sodium Benzoate 0 ppm
[11] = pH 8, Butyl Levulinate 500 ppm, Sodium Benzoate 0 ppm
[12] = pH 8, Butyl Levulinate 1000 ppm, Sodium Benzoate 0 ppm
[13] = pH 8, Butyl Levulinate 1500 ppm, Sodium Benzoate 0 ppm
[14] = pH 8, Butyl Levulinate 2000 ppm, Sodium Benzoate 0 ppm
[15] = pH 8, Butyl Levulinate 2500 ppm, Sodium Benzoate 0 ppm

MIC (Candida albicans; Candida albicans, butyl levulinate alone, or its concentration in the mixture with Sodium benzoate, read-out: MIC (ppm) to inhibit growth: Butyl levulinate): 6250 µg/mL | MIC (ppm) to inhibit growth: Butyl levulinate (Candida albicans; butyl levulinate alone, or its concentration in the mixture with BIT): 6250 ppm | MIC (ppm) to inhibit growth: Butyl levulinate (Candida albicans; butyl levulinate alone, or its concentration in the mixture with DHA): 6250 ppm | MIC (ppm) to inhibit growth: Butyl levulinate (Candida albicans; butyl levulinate alone, or its concentration in the mixture with HPNO): 6250 ppm | MIC (ppm) to inhibit growth: Butyl levulinate (Candida albicans; butyl levulinate alone, or its concentration in the mixture with PHMB): 6250 ppm | MIC (ppm) to inhibit growth: Butyl levulinate (Candida albicans; butyl levulinate alone, or its concentration in the mixture with Potassium Sorbate): 6250 ppm | MIC (ppm) to inhibit growth: Butyl levulinate (Candida albicans; butyl levulinate alone, or its concentration in the mixture with Sodium pyrithione): 6250 ppm
Structure (SMILES): CCCCOC(=O)CCC(C)=O [Butyl Levulinate, butyl levulinate]
Log reduction [1, 3]: <0.03 | Log reduction [1, 4]: <0.03 | Log reduction [1, 5]: <0.03 | Log reduction [1, 6]: <0.38 | Log reduction [1, 7]: <0.03 | Log reduction [1, 8]: <0.38 | Log reduction [1, 9]: <0.03 | Log reduction [1, 10]: <0.38 | Log reduction ([1]; pH 8, Butyl Levulinate 500 ppm, Potassium Sorbate 0 ppm): <0.33 | Log reduction [1, 11]: <0.05 | Log reduction ([1]; pH 8, Butyl Levulinate 1000 ppm, Potassium Sorbate 0 ppm): <0.33 | Log reduction [1, 12]: <0.05 | Log reduction ([1]; pH 8, Butyl Levulinate 1500 ppm, Potassium Sorbate 0 ppm): <0.33 | Log reduction [1, 13]: <0.05 | Log reduction ([1]; pH 8, Butyl Levulinate 2000 ppm, Potassium Sorbate 0 ppm): <0.33 | Log reduction [1, 14]: <0.05 | Log reduction ([1]; pH 8, Butyl Levulinate 2500 ppm, Potassium Sorbate 0 ppm): <0.33 | Log reduction [1, 15]: <0.05 | Log reduction ([2]; pH 7, Butyl Levulinate 500 ppm, IPBC 0 ppm): 0.61 | Log reduction [2, 3]: 0.10 | Log reduction ([2]; pH 7, Butyl Levulinate 500 ppm, Sodium Benzoate 0 ppm): 1.90 | Log reduction ([2]; pH 7, Butyl Levulinate 1000 ppm, IPBC 0 ppm): 0.60 | Log reduction [2, 4]: 0.10 | Log reduction ([2]; pH 7, Butyl Levulinate 1000 ppm, Sodium Benzoate 0 ppm): 1.82 | Log reduction ([2]; pH 7, Butyl Levulinate 1500 ppm, IPBC 0 ppm): 0.74 | Log reduction [2, 5]: 0.31 | Log reduction [2, 6]: 1.85 | Log reduction ([2]; pH 7, Butyl Levulinate 2000 ppm, IPBC 0 ppm): 0.70 | Log reduction [2, 7]: −0.01 | Log reduction [2, 8]: 2.01 | Log reduction ([2]; pH 7, Butyl Levulinate 2500 ppm, IPBC 0 ppm): 0.72 | Log reduction [2, 9]: 0.18 | Log reduction [2, 10]: 1.80 | Log reduction [2, 11]: 0.64 | Log reduction [2, 12]: 0.36 | Log reduction [2, 13]: 0.36 | Log reduction [2, 14]: 0.38 | Log reduction [2, 15]: 0.33 | Log reduction (C. albicans; Butyl Levulinate 500 ppm): 0.11 | Log reduction (C. albicans; Butyl Levulinate 1000 ppm): 0.22 | Log reduction (C. albicans; Butyl Levulinate 1500 ppm): 0.11 | Log reduction (C. albicans; Butyl Levulinate 2000 ppm): −0.11 | Log reduction (C. albicans; Butyl Levulinate 2500 ppm): 0.18
